Measured values as given in ChEMBL document CHEMBL3885861, “Open TG-GATES”.

Organism: Rattus norvegicus
Test: Open TG-GATES - Regimen: Single
Type: toxicity, organism-based, Sprague-Dawley
Design: regimen Single, gender Male, age 6 weeks
Conditions: in vivo, po, 1000 mg/kg, route gavage, dose level High; for APTT / Bas / Eos / Fbg / Hb / Ht / Lym / MCH / MCHC / MCV / Mono / Neu / PT / Plat / RBC / Ret / WBC: tissue Blood; for KIDNEY_L / KIDNEY_R / KIDNEY_TOTAL: tissue Kidney; for LIVER: tissue Liver; for A/G / ALP / ALT / AST / BUN / CRE / Ca / Cl / DBIL / GLC / IP / K / LDH / Na / PL / RALB / TBIL / TC / TG / TP / gamma-GTP: tissue Plasma

Compound `CCCCNC(=O)NS(=O)(=O)c1ccc(C)cc1` [TOLBUTAMIDE] has a TERMINAL_BW (3 h) of 206.8 g, an APTT (3 h) of 17 s and a Bas (3 h) of 0%. The Eos (3 h) was 0.8%, the Fbg (3 h) was 292.2 mg/dL and the Hb (3 h) was 14.1 g/dL. For the same compound, the Ht (3 h) was 43.1%, the Lym (3 h) was 76.8% and the MCH (3 h) was 21 pg. The MCHC (3 h) was 32.6%, the MCV (3 h) was 64.4 fL and the Mono (3 h) was 3%. For the same compound, the Neu (3 h) was 18.6%, the PT (3 h) was 12.9 s and the Plat (3 h) was 111.8 x10_4/uL. The RBC (3 h) was 669.4 x10_4/ul, the Ret (3 h) was 9% and the WBC (3 h) was 54.6 x10_2/uL. It also gave a KIDNEY_L (3 h) of 0.9 g, a KIDNEY_R (3 h) of 0.9 g and a KIDNEY_TOTAL (3 h) of 1.8 g. The LIVER (3 h) was 9.4 g, the A/G (3 h) was 0.9 and the ALP (3 h) was 1359.4 IU/L. The ALT (3 h) was 46.8 IU/L, the AST (3 h) was 77.6 IU/L and the BUN (3 h) was 12.4 mg/dL. The CRE (3 h) was 0.2 mg/dL, the Ca (3 h) was 10.9 mg/dL and the Cl (3 h) was 105.8 meq/L. For the same compound, the DBIL (3 h) was 0.004 mg/dL, the GLC (3 h) was 152 mg/dL and the IP (3 h) was 9.3 mg/dL. For the same compound, the K (3 h) was 4 meq/L, the LDH (3 h) was 56.4 IU/L and the Na (3 h) was 140.6 meq/L. The PL (3 h) was 138.2 mg/dL, the RALB (3 h) was 2.7 g/dL and the TBIL (3 h) was 0.05 mg/dL. For the same compound, the TC (3 h) was 73.6 mg/dL, the TG (3 h) was 75 mg/dL and the TP (3 h) was 5.6 g/dL. For the same compound, the gamma-GTP (3 h) was 1 IU/L, the TERMINAL_BW (6 h) was 203.1 g and the APTT (6 h) was 16.9 s. The Bas (6 h) was 0%, the Eos (6 h) was 1% and the Fbg (6 h) was 321.6 mg/dL. For the same compound, the Hb (6 h) was 14.1 g/dL, the Ht (6 h) was 43% and the Lym (6 h) was 72%. The MCH (6 h) was 21.4 pg, the MCHC (6 h) was 32.7% and the MCV (6 h) was 65.3 fL. For the same compound, the Mono (6 h) was 3.4%, the Neu (6 h) was 23.6% and the PT (6 h) was 12.8 s. It also gave a Plat (6 h) of 120.2 x10_4/uL, an RBC (6 h) of 659.8 x10_4/ul and a Ret (6 h) of 8.9%. The WBC (6 h) was 69.4 x10_2/uL, the KIDNEY_L (6 h) was 0.9 g and the KIDNEY_R (6 h) was 0.9 g. The KIDNEY_TOTAL (6 h) was 1.8 g, the LIVER (6 h) was 8.5 g and the A/G (6 h) was 0.9. The ALP (6 h) was 1301 IU/L, the ALT (6 h) was 39 IU/L and the AST (6 h) was 70.6 IU/L. It also gave a BUN (6 h) of 12.6 mg/dL, a CRE (6 h) of 0.2 mg/dL and a Ca (6 h) of 11 mg/dL. For the same compound, the Cl (6 h) was 105.2 meq/L, the DBIL (6 h) was 0.008 mg/dL and the GLC (6 h) was 140 mg/dL. It also gave an IP (6 h) of 9.8 mg/dL, a K (6 h) of 3.9 meq/L and an LDH (6 h) of 56 IU/L. For the same compound, the Na (6 h) was 140.6 meq/L, the PL (6 h) was 144.4 mg/dL and the RALB (6 h) was 2.7 g/dL. It also gave a TBIL (6 h) of 0.054 mg/dL, a TC (6 h) of 79.6 mg/dL and a TG (6 h) of 64.2 mg/dL. For the same compound, the TP (6 h) was 5.7 g/dL, the gamma-GTP (6 h) was 1.2 IU/L and the TERMINAL_BW (9 h) was 197.9 g. The APTT (9 h) was 17.7 s, the Bas (9 h) was 0.2% and the Eos (9 h) was 1%. It also gave a Fbg (9 h) of 332.8 mg/dL, a Hb (9 h) of 14.4 g/dL and a Ht (9 h) of 43.7%. It also gave a Lym (9 h) of 75%, an MCH (9 h) of 21 pg and an MCHC (9 h) of 33.1%. It also gave an MCV (9 h) of 63.4 fL, a Mono (9 h) of 1.8% and a Neu (9 h) of 22%. It also gave a PT (9 h) of 13.1 s, a Plat (9 h) of 127.4 x10_4/uL and an RBC (9 h) of 689.4 x10_4/ul. For the same compound, the Ret (9 h) was 8.2%, the WBC (9 h) was 56.7 x10_2/uL and the KIDNEY_L (9 h) was 0.9 g. It also gave a KIDNEY_R (9 h) of 0.9 g, a KIDNEY_TOTAL (9 h) of 1.9 g and an LIVER (9 h) of 7.8 g. For the same compound, the A/G (9 h) was 0.9, the ALP (9 h) was 1554.6 IU/L and the ALT (9 h) was 38.8 IU/L. For the same compound, the AST (9 h) was 69.8 IU/L, the BUN (9 h) was 11.2 mg/dL and the CRE (9 h) was 0.2 mg/dL. For the same compound, the Ca (9 h) was 10.7 mg/dL, the Cl (9 h) was 106 meq/L and the DBIL (9 h) was 0.006 mg/dL. The GLC (9 h) was 125.2 mg/dL, the IP (9 h) was 10.4 mg/dL and the K (9 h) was 3.9 meq/L. The LDH (9 h) was 53.6 IU/L, the Na (9 h) was 141.4 meq/L and the PL (9 h) was 127 mg/dL. The RALB (9 h) was 2.7 g/dL, the TBIL (9 h) was 0.056 mg/dL and the TC (9 h) was 66.2 mg/dL. The TG (9 h) was 44.2 mg/dL, the TP (9 h) was 5.8 g/dL and the gamma-GTP (9 h) was 1 IU/L. It also gave a TERMINAL_BW (24 h) of 213.9 g, an APTT (24 h) of 16.6 s and a Bas (24 h) of 0%. For the same compound, the Eos (24 h) was 1%, the Fbg (24 h) was 274 mg/dL and the Hb (24 h) was 13.3 g/dL. It also gave a Ht (24 h) of 41.1%, a Lym (24 h) of 80% and an MCH (24 h) of 21 pg. For the same compound, the MCHC (24 h) was 32.5%, the MCV (24 h) was 64.4 fL and the Mono (24 h) was 3%. For the same compound, the Neu (24 h) was 15.6%, the PT (24 h) was 13.4 s and the Plat (24 h) was 117.8 x10_4/uL. For the same compound, the RBC (24 h) was 637.8 x10_4/ul, the Ret (24 h) was 7.3% and the WBC (24 h) was 83.8 x10_2/uL. For the same compound, the KIDNEY_L (24 h) was 0.9 g, the KIDNEY_R (24 h) was 0.9 g and the KIDNEY_TOTAL (24 h) was 1.8 g. For the same compound, the LIVER (24 h) was 9.4 g, the A/G (24 h) was 0.9 and the ALP (24 h) was 1517.2 IU/L. The ALT (24 h) was 44.2 IU/L, the AST (24 h) was 75.4 IU/L and the BUN (24 h) was 15.4 mg/dL. It also gave a CRE (24 h) of 0.2 mg/dL, a Ca (24 h) of 10.9 mg/dL and a Cl (24 h) of 106.6 meq/L. The DBIL (24 h) was 0.006 mg/dL, the GLC (24 h) was 201.4 mg/dL and the IP (24 h) was 8.4 mg/dL. The K (24 h) was 3.9 meq/L, the LDH (24 h) was 73.4 IU/L and the Na (24 h) was 141.6 meq/L. It also gave a PL (24 h) of 136.6 mg/dL, an RALB (24 h) of 2.5 g/dL and a TBIL (24 h) of 0.058 mg/dL. For the same compound, the TC (24 h) was 77.2 mg/dL, the TG (24 h) was 72.2 mg/dL and the TP (24 h) was 5.4 g/dL. The gamma-GTP (24 h) was 1 IU/L.
